Source: PMC7155171, “Probing the Open Global Health Chemical Diversity Library for Multistage-Active Starting Points for Next-Generation Antimalarials” (ACS Infectious Diseases, 2020)
Read-outs that look alike come from different tables or passages of the source.

Assays:
[1] = test system: P. falciparum Dd2 (PfLuc) line expressing firefly luciferase, asexual blood stage; experiment: microbe, parasite or virus in culture; assay type: cell-based, Plasmodium falciparum; conditions: Plasmodium falciparum
[2] = test system: P. falciparum Dd2; experiment: SYBR green I asexual blood stage proliferation assay (96 h); assay type: cell-based, Plasmodium falciparum; conditions: Plasmodium falciparum, DD2, 11-pt dose response, 96hr
[3] = DD2, read-out: CDD P. falciparum Luciferase ABS 11-pt Reconfirmation Dose Response (48hr): IC50 (μM), 11-pt dose response, 48hr
[4] = DD2, 8-pt dose response, 96hr, read-out: CDD P. falciparum Luciferase ABS 8-pt Reconfirmation Dose Response (96hr): IC50
[5] = DD2, 11-pt dose response, 48hr, read-out: CDD P. falciparum Luciferase ABS 11-pt Reconfirmation Dose Response (48hr): Maximum inhibition (%)
[6] = DD2, 11-pt dose response, 96hr, read-out: CDD P. falciparum Luciferase ABS 11-pt Reconfirmation Dose Response (96hr): IC50
[7] = DD2, 11-pt dose response, 96hr, read-out: CDD P. falciparum Luciferase ABS 11-pt Reconfirmation Dose Response (96hr): Maximum inhibition (%)
[8] = Sybr Green I, read-out: CDD P. falciparum Sybr Green I ABS 11-pt Reconfirmation Dose Response (96hr): IC50
[9] = Sybr Green I, read-out: CDD P. falciparum Sybr Green I ABS 11-pt Reconfirmation Dose Response (96hr): Maximum inhibition (%)
[10] = DD2, 8-pt dose response, 96hr, read-out: CDD P. falciparum Luciferase ABS 8-pt Reconfirmation Dose Response (96hr): Maximum inhibition (%)
[11] = 96 h incubation, Dd2 luciferase, read-out: 96 hour Pfluc IC50
[12] = DD2, read-out: P. falciparum Luciferase ABS 11-pt Reconfirmation Dose Response (48hr): IC50, 11-pt dose response, 48hr
[13] = DD2, 8-pt dose response, 96hr, read-out: P. falciparum Luciferase ABS 8-pt Reconfirmation Dose Response (96hr): IC50
[14] = DD2, 11-pt dose response, 48hr, read-out: P. falciparum Luciferase ABS 11-pt Reconfirmation Dose Response (48hr): Maximum inhibition (%)
[15] = DD2, 11-pt dose response, 96hr, read-out: P. falciparum Luciferase ABS 11-pt Reconfirmation Dose Response (96hr): IC50
[16] = DD2, 11-pt dose response, 96hr, read-out: P. falciparum Luciferase ABS 11-pt Reconfirmation Dose Response (96hr): Maximum inhibition (%)
[17] = read-out: P. falciparum Sybr Green I ABS 11-pt Reconfirmation Dose Response (96hr): IC50
[18] = read-out: P. falciparum Sybr Green I ABS 11-pt Reconfirmation Dose Response (96hr): Maximum inhibition (%)
[19] = DD2, 8-pt dose response, 96hr, read-out: P. falciparum Luciferase ABS 8-pt Reconfirmation Dose Response (96hr): Maximum inhibition (%)

Structure (SMILES) | IC50 [1, 3] [µM] | IC50 [1, 4] [µM] | Emax [1, 5] [%] | IC50 [1, 6] [µM] | Emax [1, 7] [%] | IC50 [2, 8] [nM] | Emax [2, 9] [%] | Emax [1, 10] [%] | IC50 [1, 11] [µM] | IC50 [1, 12] [µM] | IC50 [1, 13] [µM] | Emax [1, 14] [%] | IC50 [1, 15] [µM] | Emax [1, 16] [%] | IC50 [2, 17] [nM] | Emax [2, 18] [%] | Emax [1, 19] [%]
COc1ccc(C(=O)NCCCOC(C)c2ccccc2)c(OC)c1 (stereo not shown) [DDD01071935] | 9.88 | 1.03 | 67.4 | 3.26 | 90.2 | > 4160 | 72.8 |  |  |  |  |  |  |  |  |  | 
OCCN1CCC(CNCc2ccc(Br)cc2)CC1 [DDD01072406] | 2.84 | 0.53 | 94.9 | 0.749 | 99.6 | 2010 | 92.7 | 95.5 |  |  |  |  |  |  |  |  | 
O=C(c1ccccc1)C1CCN(Cc2cc3c(cc2O)CCC3)CC1 [DDD01073482] | 1.73 | 0.6 | 94.9 | 0.607 | 99.4 | 2300 |  | 93.1 |  |  |  |  |  |  |  |  | 
CC(NCC1CCN(CCO)CC1)c1ccc(F)c(Cl)c1 (stereo not shown) [DDD01073649] | 3.46 | 1.04 | 94.4 | 0.802 | 99.5 | 1900 | 91.9 | 87 | 0.8 |  |  |  |  |  |  |  | 
CC(NCC1CCN(CCO)CC1)c1ccc(OC(F)(F)F)cc1 (stereo not shown) [DDD01073716] | 3.68 | 0.46 |  | 0.546 | 99.2 | 2880 | 95.9 | 95.5 | 0.55 |  |  |  |  |  |  |  | 
CC(NCC1CCN(CCO)CC1)c1cccc(Cl)c1 (stereo not shown) [DDD01073717] | 3.01 | 0.56 | 93.9 | 0.988 | 99.8 | 1320 | 92.1 | 94.9 |  |  |  |  |  |  |  |  | 
CC(NCC1CCN(CCO)CC1)c1ccc(Cl)cc1 (stereo not shown) [DDD01073718] | 2.47 | 0.81 |  | 0.695 | 98.2 | 844 |  |  |  |  |  |  |  |  |  |  | 
CC(NCC1CCN(CCO)CC1)c1ccc(C(F)(F)F)cc1 (stereo not shown) [DDD01073719] | 4.64 | 0.52 |  | 0.614 | 98.9 | 2650 | 92.8 | 92.5 | 0.61 |  |  |  |  |  |  |  | 
COc1ccc(CN2CCNC(=O)CC2)cc1SC(F)(F)F [DDD01074373] |  |  |  |  |  |  |  |  |  | > 4.16 | 1.28 | 57.7 | 0.735 | 70.4 | > 4160 | 51.3 | 
CCN(CC)Cc1ccccc1NC(=O)N(C)Cc1ccccc1O [DDD01074443] | 3.95 | 0.88 | 89.7 | 3.26 | 95.8 | 6280 | 87.8 | 90 |  |  |  |  |  |  |  |  | 
COCCOc1ccccc1CNCC1COC2(CCCC2)O1 (stereo not shown) [DDD01074854] |  |  |  |  |  |  |  |  |  | > 12.5 | 1.89 | 29.8 | 2.71 | 75.6 | 2130 | 71.9 | 84.3
CCc1cc(CNCc2ccccc2N(C)C2CCN(C)CC2)on1 [DDD01074859] | > 12.5 | 0.92 | 55.6 | 3.22 | 82 | 9570 | 72 | 83.3 |  |  |  |  |  |  |  |  | 
CN1CCC(N(C)c2ccccc2CNCc2ccco2)CC1 [DDD01074928] | 1.71 | 0.27 | 80.4 | 0.211 | 97.1 | 1100 | 94.3 | 92.9 | 0.21 |  |  |  |  |  |  |  | 
Cc1noc(C)c1CNCc1ccccc1N(C)C1CCN(C)CC1 [DDD01074938] | > 12.5 | 0.59 | 61.9 | 1.55 | 86.7 | 2600 | 85.6 | 91.9 |  |  |  |  |  |  |  |  | 
Cc1ccc(CNCc2cccc3cccnc23)c(OC2CCOC2)c1 (stereo not shown) [DDD01075119] | 3.77 | 0.57 | 87.5 | 1.44 | 98.4 | > 4160 | 64.7 | 83.2 |  |  |  |  |  |  |  |  | 
CC(=O)N(c1ccc(F)cc1)c1nc(CN2CCCC2C(C)C)cs1 (stereo not shown) [DDD01075305] | 6.08 | 0.65 | 57.5 | 2.69 | 92.1 | > 4160 | 62.8 | 84.5 |  |  |  |  |  |  |  |  | 

Structure (SMILES) | IC50 [1, 3] [µM] | IC50 [1, 4] [µM] | Emax [1, 5] [%] | IC50 [1, 6] [µM] | Emax [1, 7] [%] | IC50 [2, 8] [nM] | Emax [2, 9] [%] | Emax [1, 10] [%] | IC50 [1, 11] [µM] | IC50 [1, 12] [µM] | IC50 [1, 13] [µM] | Emax [1, 14] [%] | IC50 [1, 15] [µM] | Emax [1, 16] [%] | IC50 [2, 17] [nM] | Emax [2, 18] [%] | Emax [1, 19] [%]
COc1ccccc1C1(CNCc2cccc(O)c2)CCOCC1 [DDD01075721] | 10.3 | 0.85 | 67.7 | 2.2 | 90.3 | > 4160 | 68.7 | 85.5 |  |  |  |  |  |  |  |  | 
Cc1ccccc1CNCC(O)c1ccc(OC(C)C)cc1 (stereo not shown) [DDD01076008] | 3.39 | 0.89 | 93.9 | 1.47 | 99.7 | 3770 |  |  |  |  |  |  |  |  |  |  | 
Cc1cc(N2CCC(NC(C)Cc3ccsc3)CC2)nc(C)n1 (stereo not shown) [DDD01076128] |  |  |  |  |  |  |  |  |  | 2.25 | 1.19 | 81.4 | 1.09 | 96.6 | 7780 | 72.7 | 89.6
COCC(O)CN(C)c1ccnc2cc(Br)ccc12 (stereo not shown) [DDD01076306] | 1.81 | 0.99 | 97.7 | 1.51 | 99.9 | 2430 | 95.6 |  |  |  |  |  |  |  |  |  | 
Cc1cc(NC(=O)NC2CCN(C(C)C)CC2)c2ncccc2c1 [DDD01076635] |  |  |  |  |  |  |  |  |  | > 12.5 | 2.21 | 47.1 | 5.47 | 86.3 | 5300 | 53.2 | 
CN1CCN(c2ccccc2NC(=O)NCCc2ccccc2)CC1 [DDD01076697] |  |  |  |  |  |  |  |  |  | > 12.5 | 1.14 | 65.5 | > 1.39 | 89.4 | > 12500 | 52.5 | 82.8
Brc1cccc(C2(CNCc3cc[nH]c3)CCOCC2)c1 [DDD01076928] | 1.56 | 0.82 | 86.3 | 0.694 | 99.3 | 5620 |  | 85.7 |  |  |  |  |  |  |  |  | 
Brc1ccc(C2(CNCc3cc[nH]c3)CCOCC2)cc1 [DDD01076992] | 0.715 | 0.62 | 95.6 | 0.407 | 99.6 | 3080 | 54 | 82.1 |  |  |  |  |  |  |  |  | 
COCCC1(CNC(=O)Nc2ccnc(C)c2)CCCC1 [DDD01077091] | > 12.5 | 1.04 | 48.9 | > 1.39 | 82 | > 12500 | 47.9 | 79.6 |  |  |  |  |  |  |  |  | 
CN1CCN(S(=O)(=O)c2ccc(Cl)c(Cl)c2)c2cnccc21 [DDD01077309] | 6.77 | 0.57 | 78.7 | 1.46 | 95.5 | 5690 | 82.8 | 92.2 |  |  |  |  |  |  |  |  | 
CC(C)C(CNCc1cccc2c1OCO2)N1CCOCC1 (stereo not shown) [DDD01077478] | > 12.5 | 0.56 | 52.1 | 2.57 | 85.2 | 1890 | 62.1 | 86.4 |  |  |  |  |  |  |  |  | 
Cc1n[nH]cc1CNC1(c2ccc(F)cc2)CCCC1 [DDD01077733] | > 12.5 | 0.59 | 59 | 2.1 | 87 | > 1390 | 59 | 86.6 |  |  |  |  |  |  |  |  | 
CC(NCCN1CCC(N(C)C)CC1)c1ccc(Cl)s1 (stereo not shown) [DDD01077862] | 4.33 | 0.92 | 83.2 | 1.35 | 97.3 | 2870 | 89 | 87.7 |  |  |  |  |  |  |  |  | 
NC(=O)CN1CCC(Nc2ccnc3ccc(Cl)cc23)CC1 [DDD01078433] | 1.98 | 0.96 | 99.5 | 1.05 | 100 | 1020 | 98.2 |  |  |  |  |  |  |  |  |  | 
CS(=O)(=O)CCCNC1(c2cccc(Cl)c2)CCCC1 [DDD01078792] |  |  |  |  |  |  |  |  |  | > 12.5 | 1.66 | 68.8 | 3.02 | 88 | > 4160 | 73.6 | 85
